According to US4656166A, “Antibiotic compounds derived from cephalosporins, process for their production and pharmaceutical compositions” (Sanofi, priority 1983, dated 1987):
Converted amounts (≈) assume the structure as drawn. Like-named read-outs stand apart in the source and are kept apart here.

Key:
Type in all cases: cell-based
Escherichia coli SOL 90 = experiment: MIC, in vitro dilution method, Escherichia coli SOL 90 (Table III); conditions: SOL90
Procedure, shortened: (§1)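 Bacteriostatic activity was determined in vitro by the dilution method against Gram-negative strains. Values are minimum inhibitory concentrations in μg/ml.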

Citrobacter RL 49 = experiment: MIC, in vitro dilution method, Citrobacter RL 49 (Table III); conditions: RL49
Procedure, shortened: as §1

[1] = tested on: Proteus vulgaris RL 99 bis; experiment: MIC, in vitro dilution method, Proteus vulgaris RL 99 bis (Table III); conditions: RL99BIS
Procedure, shortened: as §1

Serratia RL 72 = experiment: MIC, in vitro dilution method, Serratia RL 72 (Table III); conditions: RL72
Procedure, shortened: as §1

Klebsiella RO 30 = experiment: MIC, in vitro dilution method, Klebsiella RO 30 (Table III); conditions: RO30
Procedure, shortened: as §1

Enterobacter RO 154 = experiment: MIC, in vitro dilution method, Enterobacter RO 154 (Table III); conditions: RO154
Procedure, shortened: as §1

Pseudomonas RL 112 = experiment: MIC, in vitro dilution method, Pseudomonas RL 112 (Table III); conditions: RL112
Procedure, shortened: as §1

Escherichia coli 255 = experiment: MIC on beta-lactamase producing strain Escherichia coli 255 (Table IV); conditions: Escherichia coli 255, producing beta-lactamases; read-out: MIC
Experimental: (§2) To evaluate the stability of these products towards beta-lactamases, their MIC was determined on isogenic strains producing and not producing beta-lactamases.
(§3) The results are expressed in μg/ml in Table IV.

Escherichia coli 255/L.7 = experiment: MIC on strain not producing beta-lactamase, Escherichia coli 255/L.7 (Table IV); conditions: Escherichia coli 255/L.7 *, not producing beta-lactamases; read-out: MIC
Experimental: as §2, §3

[2] = tested on: Serrtia liquefaciens SL/326 A; experiment: MIC on beta-lactamase producing strain Serratia liquefaciens SL/326 A (Table IV)
Experimental: as §2, §3

[3] = tested on: Serrtia liquefaciens SL 1326 S; experiment: MIC on strain not producing beta-lactamase, Serratia liquefaciens SL 1326 S (Table IV); conditions: SL1326S, not producing beta-lactamases
Experimental: as §2, §3

[4] = tested on: Proteus vulgaris GN 76/C.1; experiment: MIC on beta-lactamase producing strain Proteus vulgaris GN 76/C.1 (Table IV); conditions: GN76
Experimental: as §2, §3

[5] = tested on: Proteus vulgaris GN 76/C.1/3; experiment: MIC on strain not producing beta-lactamase, Proteus vulgaris GN 76/C.1/3 (Table IV); conditions: GN76, not producing beta-lactamases
Experimental: as §2, §3

[6] = Escherichia coli SOL 90, dilution method, read-out: MIC
[7] = Citrobacter RL 49, dilution method, read-out: MIC
[8] = Klebsiella RO 30, dilution method, read-out: MIC
[9] = Enterobacter RO 154, dilution method, read-out: MIC

| Structure (SMILES) | MIC (Escherichia coli SOL 90; [6]) [µg/mL] | MIC (Citrobacter RL 49; [7]) [µg/mL] | MIC ([1]; Proteus vulgaris) [µg/mL] | MIC (Serratia RL 72) [µg/mL] | MIC (Klebsiella RO 30; [8]) [µg/mL] | MIC (Enterobacter RO 154; [9]) [µg/mL] | MIC (Pseudomonas RL 112) [µg/mL] | MIC (Escherichia coli 255) [µg/mL] | MIC (Escherichia coli 255/L.7) [µg/mL] | MIC [2] [µg/mL] | MIC [3] [µg/mL] | MIC ([4]; Proteus vulgaris) [µg/mL] | MIC [5] [µg/mL] | MIC (Escherichia coli SOL 90; Escherichia coli) [µg/mL] | MIC (Citrobacter RL 49; Citrobacter) [µg/mL] | MIC (Klebsiella RO 30; Klebsiella) [µg/mL] | MIC (Enterobacter RO 154; Enterobacter) [µg/mL] | MIC ([1]; Proteus vulgaris RL 99 bis, dilution method, read-out: MIC) [µg/mL] | MIC ([4]; Proteus vulgaris GN 76/C.1, producing beta-lactamases, read-out: MIC) [µg/mL] |
| --- | --- | --- | --- | --- | --- | --- | --- | --- | --- | --- | --- | --- | --- | --- | --- | --- | --- | --- | --- |
| Cc1c(CN)cccc1C(=O)SCC1=C(C(=O)O)N2C(=O)C(NC(=O)C(=NOC(C)(C)C(=O)O)c3csc(N)n3)C2[S+]([O-])C1 (stereo not drawn) [compound 42535] | 0.5 (≈ 0.752 µM) | 0.25 (≈ 0.376 µM) | ≤ 0.125 | 1 (≈ 1.5 µM) | 0.25 (≈ 0.376 µM) | 0.5 (≈ 0.752 µM) | 8 (≈ 12 µM) | 0.125 (≈ 0.188 µM) | ≤ 0.0312 | 0.0625 (≈ 0.094 µM) | 0.125 (≈ 0.188 µM) | 0.0625 (≈ 0.094 µM) | 0.125 (≈ 0.188 µM) |  |  |  |  |  |  |
| CC(C)(O/N=C(\C(=O)NC1C(=O)N2C(C(=O)O)=C(COC(=O)c3cccc(CN)c3)C[S+]([O-])C12)c1csc(N)n1)C(=O)O (stereo not drawn) [42 320] |  |  | ≤ 0.125 | 0.5 (≈ 0.788 µM) |  |  | 4 (≈ 6.3 µM) | 0.0625 (≈ 0.0985 µM) | 0.0625 (≈ 0.0985 µM) | 0.125 (≈ 0.197 µM) | ≤ 0.0312 | ≤ 0.0312 | 0.125 (≈ 0.197 µM) | ≤ 0.125 | ≤ 0.125 | ≤ 0.125 | ≤ 0.125 |  |  |
| Cc1c(CN)cccc1C(=O)OCC1=C(C(=O)O)N2C(=O)C(NC(=O)/C(=N\OC(C)(C)C(=O)O)c3csc(N)n3)C2[S+]([O-])C1 (stereo not drawn) [42 456] | 0.25 (≈ 0.385 µM) |  | ≤ 0.125 | 0.5 (≈ 0.771 µM) |  |  | 4 (≈ 6.17 µM) | 0.0625 (≈ 0.0964 µM) | ≤ 0.0312 | 0.25 (≈ 0.385 µM) | 0.0625 (≈ 0.0964 µM) | ≤ 0.0312 | 0.125 (≈ 0.193 µM) |  | ≤ 0.125 | ≤ 0.125 | ≤ 0.125 |  |  |
| CNCCCC(=O)OCC1=C(C(=O)O)N2C(=O)C(NC(=O)/C(=N\OC(C)(C)C(=O)O)c3csc(N)n3)C2[S+]([O-])C1 (stereo not drawn) [42 028] | 0.25 (≈ 0.416 µM) | 0.5 (≈ 0.832 µM) |  | 0.5 (≈ 0.832 µM) | 0.25 (≈ 0.416 µM) | 2 (≈ 3.33 µM) | 4 (≈ 6.66 µM) | 0.12 (≈ 0.2 µM) | 0.12 (≈ 0.2 µM) | 0.12 (≈ 0.2 µM) | ≤ 0.06 |  |  |  |  |  |  | ≤ 0.12 | 0.25 (≈ 0.416 µM) |
